pIC50: −log10 of the molar value.
Legend:
[1] = Cmax in CD-1 male mouse at 5 mg/kg, iv measured for 24 hrs by LC-MS/MS analysis; assay type: ADME, organism-based; settings: CD-1, mouse, in vivo
[2] = biological target: T1, Protein deacetylase HDAC6 (Homo sapiens, UniProt Q9UBN7); experiment: (§1) Inhibition of N-terminal GST-tagged human full length recombinant HDAC6 (1 to 1215 residues) expressed in baculovirus-infected Sf9 cells using Boc-Lys-(acetyl)-AMC as substrate preincubated with enzyme for 1 hr followed by substrate addition and measured after 2 hrs by fluorescence analysis
T1 sequence (Q9UBN7 whole entry): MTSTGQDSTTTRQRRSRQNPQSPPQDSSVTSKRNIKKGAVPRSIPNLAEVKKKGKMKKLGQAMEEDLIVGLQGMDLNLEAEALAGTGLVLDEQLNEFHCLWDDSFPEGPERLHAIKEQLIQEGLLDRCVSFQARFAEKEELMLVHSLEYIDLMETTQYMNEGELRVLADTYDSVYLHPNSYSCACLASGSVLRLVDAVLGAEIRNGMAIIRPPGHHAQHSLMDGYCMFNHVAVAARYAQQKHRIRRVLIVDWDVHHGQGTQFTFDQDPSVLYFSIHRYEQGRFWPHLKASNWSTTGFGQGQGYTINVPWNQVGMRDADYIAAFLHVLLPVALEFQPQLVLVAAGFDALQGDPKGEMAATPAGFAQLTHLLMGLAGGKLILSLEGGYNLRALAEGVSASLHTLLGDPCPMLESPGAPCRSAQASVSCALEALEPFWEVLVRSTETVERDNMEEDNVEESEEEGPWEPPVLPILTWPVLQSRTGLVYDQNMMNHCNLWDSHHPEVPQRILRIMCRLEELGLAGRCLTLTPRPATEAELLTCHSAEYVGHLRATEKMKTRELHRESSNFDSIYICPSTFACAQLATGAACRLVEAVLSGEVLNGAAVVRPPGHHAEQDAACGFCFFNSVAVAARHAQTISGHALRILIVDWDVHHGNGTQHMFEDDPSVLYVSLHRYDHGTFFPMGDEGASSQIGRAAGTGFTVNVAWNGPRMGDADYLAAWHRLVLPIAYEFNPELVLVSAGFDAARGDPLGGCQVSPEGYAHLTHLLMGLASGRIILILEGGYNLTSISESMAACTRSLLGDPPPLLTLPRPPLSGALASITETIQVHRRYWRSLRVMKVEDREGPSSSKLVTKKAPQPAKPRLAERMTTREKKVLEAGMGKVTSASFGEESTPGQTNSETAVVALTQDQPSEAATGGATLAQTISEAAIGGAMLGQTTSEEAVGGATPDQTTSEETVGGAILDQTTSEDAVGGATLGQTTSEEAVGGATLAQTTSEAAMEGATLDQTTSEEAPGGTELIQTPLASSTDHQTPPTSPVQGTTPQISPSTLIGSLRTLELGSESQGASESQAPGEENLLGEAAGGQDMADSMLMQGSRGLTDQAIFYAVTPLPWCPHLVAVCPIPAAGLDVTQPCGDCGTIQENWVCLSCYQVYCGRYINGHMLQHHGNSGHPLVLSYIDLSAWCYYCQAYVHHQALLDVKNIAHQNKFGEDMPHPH

Histone deacetylase 11 = biological target: T2, Histone deacetylase 11 (Homo sapiens, UniProt Q96DB2); experiment: Inhibition of full length human recombinant HDAC11 (1 to 347 residues) expressed in baculovirus-infected Sf9 cells using Boc-Lys-(trifluoroacetyl)-AMC as substrate preincubated with enzyme for 1 hr followed by substrate addition and measured after 2 hrs by fluorescence analysis
T2 sequence (Q96DB2 whole entry): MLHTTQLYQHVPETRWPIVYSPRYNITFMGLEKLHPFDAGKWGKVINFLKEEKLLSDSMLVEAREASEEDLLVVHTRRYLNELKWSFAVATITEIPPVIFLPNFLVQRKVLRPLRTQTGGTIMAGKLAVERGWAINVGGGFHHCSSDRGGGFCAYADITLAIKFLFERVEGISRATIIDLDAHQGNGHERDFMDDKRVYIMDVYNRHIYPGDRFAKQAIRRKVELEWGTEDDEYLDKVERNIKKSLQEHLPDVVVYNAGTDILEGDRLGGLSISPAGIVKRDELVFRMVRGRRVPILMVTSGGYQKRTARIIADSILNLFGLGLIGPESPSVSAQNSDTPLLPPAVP

HL-60 = experiment: Antiproliferative activity against p53-null human HL-60 cells assessed as induction of cell death incubated for 48 hrs in presence of nicotinamide mononucleotide by resazurin dye based fluorescence analysis; assay type: functional; settings: read-out: LD50 (the source's name)
[3] = AUC (0 to infinity) in CD-1 male mouse at 5 mg/kg, iv by LC-MS/MS analysis; assay type: ADME, organism-based; settings: CD-1, mouse, in vivo
[4] = Plasma clearance in CD-1 male mouse at 5 mg/kg, iv measured for 24 hrs by LC-MS/MS analysis; assay type: ADME, organism-based; settings: CD-1, mouse
[5] = Half life in CD-1 male mouse at 5 mg/kg, iv measured for 24 hrs by LC-MS/MS analysis; assay type: ADME, organism-based; settings: CD-1, mouse, in vivo
[6] = biological target: Histone deacetylase 3/Nuclear receptor corepressor 2 (HDAC3/NCoR2) (Homo sapiens, UniProt O15379); experiment: as §1, with “C-terminal His-tagged” for “N-terminal GST-tagged”, “HDAC3” for “full length recombinant HDAC6”, “428 residues)/N-terminal GST tagged human NCOR2 (395 to 489” for “1215”
Sequence of Histone deacetylase 3/Nuclear receptor corepressor 2 (HDAC3/NCoR2) (O15379 whole entry): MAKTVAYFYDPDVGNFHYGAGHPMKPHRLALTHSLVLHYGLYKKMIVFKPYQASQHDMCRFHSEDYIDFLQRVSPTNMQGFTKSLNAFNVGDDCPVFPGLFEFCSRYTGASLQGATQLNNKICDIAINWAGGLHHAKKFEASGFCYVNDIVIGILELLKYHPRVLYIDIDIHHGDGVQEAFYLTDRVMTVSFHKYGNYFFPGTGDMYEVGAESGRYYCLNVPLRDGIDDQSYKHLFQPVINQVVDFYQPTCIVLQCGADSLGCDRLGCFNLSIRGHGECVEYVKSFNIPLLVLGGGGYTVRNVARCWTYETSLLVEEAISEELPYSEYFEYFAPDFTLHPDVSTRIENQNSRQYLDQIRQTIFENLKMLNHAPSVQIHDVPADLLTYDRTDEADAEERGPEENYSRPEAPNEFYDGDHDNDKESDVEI
Sequence of Histone deacetylase 3/Nuclear receptor corepressor 2 (HDAC3/NCoR2) (Q9Y618 whole entry, further chain): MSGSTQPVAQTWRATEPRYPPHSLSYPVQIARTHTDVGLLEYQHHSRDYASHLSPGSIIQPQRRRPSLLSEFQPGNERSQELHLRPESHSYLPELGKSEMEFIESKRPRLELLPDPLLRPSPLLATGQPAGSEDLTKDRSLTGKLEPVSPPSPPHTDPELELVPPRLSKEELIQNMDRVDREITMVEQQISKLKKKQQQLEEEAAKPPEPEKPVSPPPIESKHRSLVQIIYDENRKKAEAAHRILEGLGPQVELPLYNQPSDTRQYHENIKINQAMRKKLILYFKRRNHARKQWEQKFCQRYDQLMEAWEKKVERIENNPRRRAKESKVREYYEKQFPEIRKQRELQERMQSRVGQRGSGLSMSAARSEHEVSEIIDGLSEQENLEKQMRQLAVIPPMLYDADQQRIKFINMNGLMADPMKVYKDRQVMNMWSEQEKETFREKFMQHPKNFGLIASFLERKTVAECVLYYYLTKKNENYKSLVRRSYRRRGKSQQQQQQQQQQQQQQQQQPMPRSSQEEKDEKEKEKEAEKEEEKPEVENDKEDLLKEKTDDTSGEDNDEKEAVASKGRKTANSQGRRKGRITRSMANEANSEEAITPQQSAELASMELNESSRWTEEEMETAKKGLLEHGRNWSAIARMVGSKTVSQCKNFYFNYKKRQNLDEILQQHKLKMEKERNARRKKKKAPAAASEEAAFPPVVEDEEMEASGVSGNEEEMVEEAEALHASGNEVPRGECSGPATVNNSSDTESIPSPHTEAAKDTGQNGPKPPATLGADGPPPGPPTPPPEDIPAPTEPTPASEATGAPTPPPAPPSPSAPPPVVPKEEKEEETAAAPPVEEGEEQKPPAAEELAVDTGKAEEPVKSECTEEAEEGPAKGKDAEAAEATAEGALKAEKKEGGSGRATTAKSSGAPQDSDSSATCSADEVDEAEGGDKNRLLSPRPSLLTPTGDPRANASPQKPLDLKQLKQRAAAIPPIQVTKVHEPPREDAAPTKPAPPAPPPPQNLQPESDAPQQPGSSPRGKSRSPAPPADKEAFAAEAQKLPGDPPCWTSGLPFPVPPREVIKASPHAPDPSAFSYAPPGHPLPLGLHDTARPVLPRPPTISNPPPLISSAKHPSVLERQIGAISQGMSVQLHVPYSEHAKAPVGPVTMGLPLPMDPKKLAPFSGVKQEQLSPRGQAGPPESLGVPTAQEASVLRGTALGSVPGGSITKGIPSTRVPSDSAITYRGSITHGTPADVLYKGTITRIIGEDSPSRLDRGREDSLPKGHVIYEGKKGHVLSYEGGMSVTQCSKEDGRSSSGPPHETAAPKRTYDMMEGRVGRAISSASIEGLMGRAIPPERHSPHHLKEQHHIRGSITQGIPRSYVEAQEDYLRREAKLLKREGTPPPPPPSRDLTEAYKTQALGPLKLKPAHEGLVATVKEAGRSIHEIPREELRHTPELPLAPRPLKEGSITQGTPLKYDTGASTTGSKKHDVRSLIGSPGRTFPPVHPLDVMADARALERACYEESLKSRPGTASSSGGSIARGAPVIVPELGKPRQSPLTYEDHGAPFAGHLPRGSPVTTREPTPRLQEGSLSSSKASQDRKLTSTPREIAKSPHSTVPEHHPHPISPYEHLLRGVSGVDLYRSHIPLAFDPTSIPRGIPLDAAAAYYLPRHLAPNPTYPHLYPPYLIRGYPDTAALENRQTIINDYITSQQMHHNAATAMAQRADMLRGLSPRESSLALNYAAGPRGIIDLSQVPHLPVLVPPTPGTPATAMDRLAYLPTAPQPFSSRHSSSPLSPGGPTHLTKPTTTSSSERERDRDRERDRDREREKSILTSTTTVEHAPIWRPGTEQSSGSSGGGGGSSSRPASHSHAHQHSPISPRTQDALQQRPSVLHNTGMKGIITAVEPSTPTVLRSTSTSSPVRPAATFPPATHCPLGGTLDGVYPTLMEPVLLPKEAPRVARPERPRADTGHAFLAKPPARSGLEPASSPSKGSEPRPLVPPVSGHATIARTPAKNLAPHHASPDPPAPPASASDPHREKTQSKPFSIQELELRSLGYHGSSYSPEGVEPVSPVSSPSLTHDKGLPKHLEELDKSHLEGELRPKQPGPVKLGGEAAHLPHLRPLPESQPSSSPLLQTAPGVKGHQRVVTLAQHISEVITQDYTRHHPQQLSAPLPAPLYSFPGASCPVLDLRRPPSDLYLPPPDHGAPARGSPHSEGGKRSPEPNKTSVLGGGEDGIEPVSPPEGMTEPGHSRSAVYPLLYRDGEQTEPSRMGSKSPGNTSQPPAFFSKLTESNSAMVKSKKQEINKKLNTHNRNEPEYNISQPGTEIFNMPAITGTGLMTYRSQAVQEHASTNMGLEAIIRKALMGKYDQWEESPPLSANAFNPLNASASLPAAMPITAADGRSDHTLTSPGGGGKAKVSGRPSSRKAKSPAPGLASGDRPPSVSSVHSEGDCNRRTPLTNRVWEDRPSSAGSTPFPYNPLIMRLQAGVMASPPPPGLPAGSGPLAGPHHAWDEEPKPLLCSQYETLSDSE

MV4-11 = experiment: cells; assay type: functional, cell-based; settings: Homo sapiens; for GI50: MV4-11, time 48 hrs
Histone deacetylase 4 = Histone deacetylase 4 (Homo sapiens, UniProt P56524); experiment: Inhibition of C-terminal His-tagged/N-terminal GST-tagged human HDAC4 (627 to 1084 residues) expressed in baculovirus-infected Sf9 cells using Boc-Lys-(trifluoroacetyl)-AMC as substrate preincubated with enzyme for 1 hr followed by substrate addition and measured after 2 hrs by fluorescence analysis
Sequence of Histone deacetylase 4 (P56524 whole entry, the tested form may be a part): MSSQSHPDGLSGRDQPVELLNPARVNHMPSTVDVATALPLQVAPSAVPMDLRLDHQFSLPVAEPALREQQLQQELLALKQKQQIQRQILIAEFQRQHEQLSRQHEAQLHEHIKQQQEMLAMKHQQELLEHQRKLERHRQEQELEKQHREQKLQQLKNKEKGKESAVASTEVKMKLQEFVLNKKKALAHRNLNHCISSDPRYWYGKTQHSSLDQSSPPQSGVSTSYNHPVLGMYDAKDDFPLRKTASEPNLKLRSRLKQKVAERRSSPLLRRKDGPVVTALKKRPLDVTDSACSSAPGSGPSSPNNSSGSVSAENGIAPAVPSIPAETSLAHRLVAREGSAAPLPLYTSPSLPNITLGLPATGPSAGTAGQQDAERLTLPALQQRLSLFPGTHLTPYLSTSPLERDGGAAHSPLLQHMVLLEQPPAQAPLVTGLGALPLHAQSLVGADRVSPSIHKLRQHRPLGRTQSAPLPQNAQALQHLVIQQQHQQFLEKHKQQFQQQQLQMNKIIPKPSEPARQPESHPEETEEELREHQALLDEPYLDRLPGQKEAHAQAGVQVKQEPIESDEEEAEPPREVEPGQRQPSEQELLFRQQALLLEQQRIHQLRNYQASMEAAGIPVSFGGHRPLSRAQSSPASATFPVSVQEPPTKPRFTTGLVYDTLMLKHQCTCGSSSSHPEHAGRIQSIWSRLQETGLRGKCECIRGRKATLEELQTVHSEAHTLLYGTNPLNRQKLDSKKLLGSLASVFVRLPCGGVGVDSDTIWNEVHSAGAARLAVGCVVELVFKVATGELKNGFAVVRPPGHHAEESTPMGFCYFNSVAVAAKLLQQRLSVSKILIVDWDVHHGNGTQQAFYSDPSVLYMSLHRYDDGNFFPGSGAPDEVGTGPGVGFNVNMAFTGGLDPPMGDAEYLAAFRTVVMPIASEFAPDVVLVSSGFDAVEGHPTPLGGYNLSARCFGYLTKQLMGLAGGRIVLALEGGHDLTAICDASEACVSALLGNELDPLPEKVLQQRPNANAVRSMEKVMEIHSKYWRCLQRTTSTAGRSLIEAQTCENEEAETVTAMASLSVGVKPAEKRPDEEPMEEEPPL

[7] = biological target: Nicotinamide phosphoribosyltransferase (Homo sapiens, UniProt P43490); experiment: Inhibition of N-terminal GST-tagged human recombinant NAMPT (2 to 491 residues) expressed in Escherichia coli expression system incubated for 30 mins by fluorescence based analysis
Sequence of Nicotinamide phosphoribosyltransferase (P43490 whole entry, the tested form may be a part): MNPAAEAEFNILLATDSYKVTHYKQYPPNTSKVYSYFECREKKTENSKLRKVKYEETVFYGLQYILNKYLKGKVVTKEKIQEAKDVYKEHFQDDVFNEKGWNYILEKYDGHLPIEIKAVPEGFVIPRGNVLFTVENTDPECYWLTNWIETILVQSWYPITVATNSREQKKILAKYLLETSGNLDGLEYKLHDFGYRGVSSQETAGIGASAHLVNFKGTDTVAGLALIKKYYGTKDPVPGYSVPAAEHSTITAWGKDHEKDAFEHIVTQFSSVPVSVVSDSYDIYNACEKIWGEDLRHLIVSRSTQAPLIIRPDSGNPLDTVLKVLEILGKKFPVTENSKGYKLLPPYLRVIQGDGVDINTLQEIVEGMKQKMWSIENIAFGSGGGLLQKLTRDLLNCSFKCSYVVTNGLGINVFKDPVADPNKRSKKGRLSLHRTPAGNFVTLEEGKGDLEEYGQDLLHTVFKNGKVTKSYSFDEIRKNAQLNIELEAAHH

SMILES	Cmax [1] [ng/mL]	pIC50 [2]	pIC50 (Histone deacetylase 11)	CC50 (HL-60) [nM]	AUC(0-inf) [3] [ng·h/mL]	clearance [4] [mL/min/kg]	half-life [5] [h]	pIC50 [6]	GI50 (MV4-11) [nM]	pIC50 (Histone deacetylase 4)	pIC50 (MV4-11; MV4-11, 48 h)	pIC50 [7]
CCCNNC(=O)c1ccc(CNC(=O)c2cc3cnccc3[nH]2)cc1	11700	< 5.00	< 5.00	> 100000	3360	25.1	9.19	9.14	23.6	< 5.00	–	–
CCCNNC(=O)c1ccc(CNC(=O)/C=C/c2cccnc2)cc1	–	< 5.00	< 5.00	> 100000	–	–	–	–	38.3	< 5.00	7.22	5.78

Source: ChEMBL document CHEMBL5505964, “HDAC/NAMPT dual inhibitors overcome initial drug-resistance in p53-null leukemia cells” (Eur J Med Chem, 2024)
